Reference: publication PMC3399945 (Journal of the American Chemical Society, 2012)
Square brackets hold non-standard residues; d marks the D form. Peptide text beside a SMILES is read from it. * marks the point of attachment. X1 = NC(=O)CC[C@@H]1NC(=O)CC/C=C/CN(CCC(=O)*)C(=O)[C@H](CCC(=O)O)NC1=O; β3hL = CC(C)C[C@H](N)CC(=O)O

Legend:
[1] = Thermal denaturation monitored by CD / Zimm–Bragg model; assay type: physicochemical; details: from broad thermal transition, CD in 10% TFE/PBS, Zimm–Bragg simulation
[2] = Amide hydrogen-deuterium exchange; assay type: physicochemical; details: for H/D rate constant: D2O/TFE-d3 80/20, 20 °C, NMR, in duplicate; for Stabilization, −ΔG (free energy of protection): from H/D exchange, 20 °C
[3] = assay type: physicochemical; details: 10% TFE in PBS, 25 °C, 100 μM peptide, pH 7.4
[4] = target: N-terminal His6-tagged MDM2 (25–117) (Homo sapiens, UniProt Q00987); test: Fluorescence polarization-based competition binding assay with Flu-p53; details: comparison with previously reported affinity of 1 (ref 38)

| Compound | nucleation constant σ [1] | H/D rate constant ([2]; residue 4 (F^4)) [h⁻¹] | H/D rate constant ([2]; residue 5 (S^5)) [h⁻¹] | H/D rate constant ([2]; residue 8 (W^8)) [h⁻¹] | H/D rate constant ([2]; residue 9 (K^9)) [h⁻¹] | H/D rate constant ([2]; residue 12 (S^12)) [h⁻¹] | CD signature (in words) [3] | Stabilization, −ΔG (free energy of protection) ([2]; residue 6 (D^6 in 1 and 2, Dβ^6 in 3)) [kcal/mol] | Stabilization, −ΔG (free energy of protection) ([2]; residue 7 (L^7 in 1 and 3, Lβ^7 in 2)) [kcal/mol] | Stabilization, −ΔG (free energy of protection) ([2]; residue 8 (W^8)) [kcal/mol] | Stabilization, −ΔG (free energy of protection) ([2]; residue 9 (K^9)) [kcal/mol] | Stabilization, −ΔG (free energy of protection) ([2]; residue 10 (L^10 in 1 and 2, Lβ^10 in 3)) [kcal/mol] | Stabilization, −ΔG (free energy of protection) ([2]; residue 11 (L^11 in 1 and 3, Lβ^11 in 2)) [kcal/mol] | Stabilization, −ΔG (free energy of protection) ([2]; residue 12 (S^12)) [kcal/mol] | affinity for MDM2 compared with HBS α-helix 1 (in words) [4] |
| --- | --- | --- | --- | --- | --- | --- | --- | --- | --- | --- | --- | --- | --- | --- | --- |
| CC(C)C[C@@H](CC(=O)N[C@@H](Cc1c[nH]c2ccccc12)C(=O)N[C@@H](CCCCN)C(=O)N[C@@H](CC(C)C)C(=O)N[C@H](CC(=O)N[C@@H](CO)C(N)=O)CC(C)C)NC(=O)[C@H](CC(=O)O)NC(=O)[C@H](CO)NC(=O)[C@H](Cc1ccccc1)NC(=O)CCN1C/C=C/CCC(=O)N[C@@H](CCC(N)=O)C(=O)N[C@@H](CCC(=O)O)C1=O [Peptide 2] (X1-FSD[β3hL]WKL[β3hL]S-NH2) | ≥ 1 | 0.0003809 | 0.0003809 | 6.9e-06 | 2.8e-06 | 5.85e-05 | – | – | – | – | – | – | – | – | – |
| XQEG*FSDLWKLLS-NH2 (sidechain bridge or staple) [Peptide 1] | – | 0.0003808 | 0.0003808 | 1.8e-06 | 5.1e-06 | 7.8e-06 | CD signature typical of a canonical α-helix, with double minima near 206 and 222 nm and a maximum at 190 nm | -0.58 | 0.52 | 1.22 | 1.23 | 1.40 | 1.04 | 1.42 | – |
| CC(C)C[C@@H](CC(=O)N[C@@H](CC(C)C)C(=O)N[C@@H](CO)C(N)=O)NC(=O)[C@H](CCCCN)NC(=O)[C@H](Cc1c[nH]c2ccccc12)NC(=O)[C@H](CC(C)C)NC(=O)C[C@H](CC(=O)O)NC(=O)[C@H](CO)NC(=O)[C@H](Cc1ccccc1)NC(=O)CN1C/C=C/CCC(=O)N[C@@H](CCC(N)=O)C(=O)N[C@@H](CCC(=O)O)CC1=O [Peptide 3] | ≥ 1 | 1.33e-05 | 1.07e-05 | 1.4e-06 | 8e-07 | 2.6e-06 | – | – | – | – | – | – | – | – | comparable to that previously reported for the optimized HBS p53 α-helix analog 1 |
